# Source: US6503524B1, “Delivery of a skin health benefit agent to a treated substrate for transfer to skin” (Kimberly-Clark Worldwide, Inc., priority 2000, dated 2003)
# Like-named read-outs stand apart in the source and are kept apart here.
# Tests used:
# [1] = not given; remark: listed apart in the source
# [2] = tested on: proteolytic activity of infant urine; conditions: zinc sulfate heptahydrate 0-50 mM; FIG. 8
# Protocol: The proteolytic activity of infant urine was measured using fluorescently labeled casein.
# Two (2) infant urine (100 μL) samples were added to wells of a 96 white plate (Dynex) containing 80 μL of 12.5 μg/ml solution of a fluorescent dye-labeled casein substrate (EnzChek Protease Assay Kit (E-6639)) in 100 mM Tris-HCl, pH 8.0, and allowed to incubate for 60 minutes at 37° C. […] Reaction of the infant urine with the casein substrate cleaved the fluorescent dye from the substrate. RFUs were collected using the Fluoroskan Ascent System with excitation and emission filters of 485 and 538 nm, respectively. Data were collected each minute for 60 minutes at 37° C. and rates (RFU/min) from 30-50 minutes were calculated for each zinc concentration. Using the uninhibited wells as 100% protease activity, percent of urine proteolytic activity remaining was determined for each concentration of zinc inhibitor (Inhibited Rate/Uninhibited rate* 100).
# [3] = tested on: EpiDerm™ 201 synthetic skin (keratinocytes), interleukin-1 alpha release
# Text: The synthetic skin, EpiDerm™ 201 (MatTek Corporation, Ashland, Mass. contains keratinocytes that release interleukin-1 alpha (IL-1 alpha) when subjected to proteases in the fecal extract. When the IL-1 alpha was released, it diffused from the skin into the fluid below the EpiDerm™. Samples of this fluid were taken and analyzed for the presence of the IL-1 alpha. Higher levels of IL-1 alpha was indicative of greater skin irritation.
# Prior to application onto the EpiDerm™, the fecal extract (10.4 μL) was pre-incubated for 30 minutes at room temperature with 250 mM zinc sulfate heptahydrate in water (2.6 μL). Water only and fecal extract only samples served as controls. After application of the samples to the EpiDerm™, 25 μL aliquots were removed from the underlying media at 8, 12, and 24 hours to test for the presence of the IL-1 alpha. The aliquots were directly added to a 1.5 mL micro-centrifuge tube containing 225 μL of filtered-sterilized 20 mM tris-HCl, pH 8.0, 1% BSA buffer and stored at −80° C. After all samples were collected, IL-1 alpha levels were quantified using the R&D Systems Interleukin-1 alpha Quantikine Kit (R&D Systems, Minneapolis, Minn.
# [4] = tested on: proteolytic activity of a fecal extract; conditions: zinc sulfate heptahydrate 0-1 mM; FIG. 7
# Protocol: The supernatant was filtered through 0.22 micron cellulose acetate filters and stored at −80° C. until use.
# [5] = 1.0 mM zinc sulfate heptahydrate
# [6] = 2.5 mM zinc sulfate heptahydrate
# [7] = 5.0 mM zinc sulfate heptahydrate
# [8] = 10.0 mM zinc sulfate heptahydrate
# [9] = 20.0 mM zinc sulfate heptahydrate
# [10] = .1 mM zinc sulfate heptahydrate
# [11] = increased concentration of zinc sulfate heptahydrate (Table 1)
structure (smiles),measurement,setting,value
O.O.O.O.O.O.O.O=S(=O)([O-])[O-].[Zn+2] [zinc sulfate heptahydrate],"pH, Infant Urine Example F",[5],8.0
same,"pH, Infant Urine Example G",[5],7.0
same,"pH, Infant Urine Example H",[5],7.5
same,"pH, Infant Urine Example F",[6],7.5-8.0
same,"pH, Infant Urine Example G",[6],6.5
same,"pH, Infant Urine Example H",[6],7.0-7.5
same,"pH, Infant Urine Example F",[7],7.5
same,"pH, Infant Urine Example G",[7],5.5
same,"pH, Infant Urine Example H",[7],7.0
same,"pH, Infant Urine Example F",[8],7.0
same,"pH, Infant Urine Example G",[8],5.0
same,"pH, Infant Urine Example H",[8],6.5
same,"pH, Infant Urine Example F",[9],7.0
same,"pH, Infant Urine Example G",[9],5.0
same,"pH, Infant Urine Example H",[9],6.5
same,"pH, Infant Urine Example F",[10],8.5
same,"pH, Infant Urine Example G",[10],7.0
same,"pH, Infant Urine Example H",[10],8.0
same,reduction of pH of the infant urine samples,[11],1.5-2.0 pH units
same,"pH, Fecal Extract Example B",[1]; [5],6.5
same,"pH, Fecal Extract Example B",[1]; [6],6.0-6.5
same,"pH, Fecal Extract Example B",[1]; [7],6.0
same,"pH, Fecal Extract Example B",[1]; [8],5.5
same,"pH, Fecal Extract Example B",[1]; [9],5.5
same,"pH, Fecal Extract Example B",[1]; [10],6.5
same,reduction of pH of the fecal extract sample,[1]; [11],1 pH unit
same,inhibition of hydrolysis of casein by infant urine (percent of urine proteolytic activity remaining),[2],effectively inhibited the hydrolysis of casein by infant urine in a dose-dependent manner
same,proteolytic activity of fecal extract on synthetic skin (IL-1 alpha release),"[3]; 0, 25, 50, 125 and 250 mM zinc sulfate heptahydrate, FIG. 10",effectively inhibits the proteolytic activity of fecal extract in a dose-dependent manner
same,interleukin-1 alpha released into the underlying media,"[3]; FE+zinc (250 mM, 2.6 μL) relative to FE+water, 8, 12 and 24 hours, FIG. 9",reduced the amount of interleukin-1 alpha released
same,inhibition of hydrolysis of casein by the fecal extract (percent of fecal proteolytic activity remaining),[4],effectively inhibited the hydrolysis of casein by the fecal extract in a dose-dependent manner
